The text below walks through data of US8633251B2, “Derivatives of aminoalkanols, method of obtaining of aminoalkanols and their use” (Uniwersytet Jagiellonski, priority 2008, dated 2014).

Where two headings read alike, the source gives them in different places.

For data set [1], the system named is maximal electroshock seizures. Briefly: Maximum Electroshock Seizure (MES) test, mice. In kind it is in vivo. The settings on record: mice; for responders at 100 mg/kg: read-out: MES, No. of protected animals/No. of used animals (converted). The method, then:
(§1) In order to define anticonvulsant activity, screening tests were performed, using animal models of seizures. […] Each substance (after dissolving in methylcellulose) was normally tested in doses 30, 100, and 300 mg/kg body weight (b.w.) (mice) or in 30 and 50 mg/kg b.w. (rats) in two possible routes of administration: intraperitoneal (i.p.) or oral (p.o.). Appropriate tests were performed 0.5 and 4 h after administration of the compound. […] (mice) the tests were also performed in doses 10 and 3 mg/kg b.w.
Maximum Electroshock Seizure (MES) test is an electric test, verifying activity towards generalized tonic-clonic seizures (grand mal epilepsy). […] Its procedure consists in administration to an animal a mentioned dose, and after 0.5 or 4 h attaching corneal electrodes (after anesthetic eye-drops: 0.5% tetracaine hydrochloride in 0.9% NaCl) and turning on electric current (60 Hz, 0.2 s, 50 mA (mice) or 150 mA (rats)). […] Normally, in the dose 30 mg/kg b.w. the test is done in 1 mouse after 0.5 or 4 h, in the dose 100 mg/kg b.w.—in 3 mice, and in the dose 300 mg/kg b.w.—in 1 mouse.

Another data set relates to neurotoxicity (rotarod). The data set is described as follows: Neurotoxicity test (TOX), rotarod, mice. In kind it is in vivo. The method, then: as §1
It is performed with use of rotarod test. The animal is placed on a plastic rod (1 inch in diameter), rotating 6 rpm. The rod is placed on a level discouraging the animal to jump off. […] Neurotoxicity is stated if the animal cannot stay on the rod for 1 min. in any of 3 trials. Normally the test is performed in dose 30 mg/kg b.w. in 4 mice (0.5 h) and in 2 mice (4 h), in the dose 100 mg/kg b.w. in 8 mice (0.5 h) and in 4 mice (4 h) and in the dose 300 mg/kg b.w. in 4 mice (0.5 h) and 2 mice (4 h).
In general terms: In the rotarod test animals must keep their balance on a rotating rod.

Where [2] appears, read: dose 100 mg/kg b.w., time 0.5 h.
Setting [3] is: dose 300 mg/kg b.w., time 0.5 h.
Where [4] appears, read: mice, dose 30 mg/kg b.w., time 0.5 h.
Where [5] appears, read: mice, dose 100 mg/kg b.w., time 0.5 h.
Setting [6] is: mice, dose 100 mg/kg b.w., time 4 h.
[7] abbreviates: mice, dose 300 mg/kg b.w., time 0.5 h.
[8] abbreviates: mice, dose 30 mg/kg b.w., 0.5 h.
Where [9] appears, read: mice, dose 100 mg/kg b.w., 0.5 h.
Setting [10] is: mice, dose 300 mg/kg b.w., 0.5 h.

Take `Cc1cc(C)c(C)c(OCCNCC(O)c2ccccc2)c1.Cl` (stereo not drawn) [Compound 42, R,S-2N-[(2,3,5-trimethylphenoxy)ethyl]amino-1-phenylethanol hydrochloride]: the “MES, No. of protected animals/No. of used animals” value is on record as 3/3 in data set [1] (setting [2]); 1/3 in data set [1] (dose 100 mg/kg b.w., time 4 h); 1/1 in data set [1] (setting [3]). The “TOX, No. of animals exhibiting motor impairment/no. of used animals” value in the data set with neurotoxicity (rotarod) (setting [4]) was 3/4; in the data set with neurotoxicity (rotarod) (mice, dose 30 mg/kg b.w., time 4 h), 1/2; with neurotoxicity (rotarod) (setting [5]), 8/8; in the data set on neurotoxicity (rotarod) (setting [6]), 4/4; in the data set on neurotoxicity (rotarod) (setting [7]), 4/4; in the data set on neurotoxicity (rotarod) (mice, dose 300 mg/kg b.w., time 4 h) it was 1/1.
Consider `CCC(CO)NCCOc1c(C)cccc1Cl.Cl` (stereo not drawn) [Compound 26a, R,S-2N-[(2-chlor-6-methylphenoxy)ethyl]amino-1-butanol hydrochloride], for which the “MES, No. of protected animals/No. of used animals” value is listed as 1/1 in data set [1] (dose 30 mg/kg b.w., time 0.5 h) and 1/1 in data set [1] (setting [2]). Besides, the “TOX, No. of animals exhibiting motor impairment/no. of used animals” value in the data set with neurotoxicity (rotarod) (setting [4]) is recorded as 3/4; with neurotoxicity (rotarod) (setting [5]), 8/8; in the data set on neurotoxicity (rotarod) (setting [6]), 1/4; in the data set with neurotoxicity (rotarod) (setting [7]) it was 4/4.
`Cc1cccc(OCCCNC(C)CO)c1C` (racemic) [Compound 46, R,S-2N-[(2,3-dimethylphenoxy)propyl]amino-1-propanol]: the “MES, No. of protected animals/No. of used animals” value in data set [1] (setting [2]) is reported as 3/3. Further, the “TOX, No. of animals exhibiting motor impairment/no. of used animals” value with neurotoxicity (rotarod) (mouse, in vivo, 100 mg/kg) was 8/8; in the data set on neurotoxicity (rotarod) (mouse, in vivo, 300 mg/kg), 4/4.
For `Cc1cc(C)c(OCCNCC(O)c2ccccc2)c(C)c1` (stereo not drawn) [Compound 45, R,S-2N-[(2,4,6-trimethylphenoxy)ethyl]amino-1-phenylethanol], the “MES, No. of protected animals/No. of used animals” value in data set [1] (setting [2]) was 3/3; in data set [1] (setting [3]) it was 1/1; in data set [1] (dose 300 mg/kg b.w., time 4 h), 1/1. The “TOX, No. of animals exhibiting motor impairment/no. of used animals” value with neurotoxicity (rotarod) (setting [7]) was 3/4.
As for `Cc1cccc(C)c1OCCCNCC(C)O` (racemic) [Compound 50, R,S-1N-[(2,6-dimethylphenoxy)propyl]amino-2-propanol], the “MES, No. of protected animals/No. of used animals” value in data set [1] (dose 30 mg/kg b.w., time 0.5 h) was 1/1; in data set [1] (setting [2]), 3/3. For the same compound, the “TOX, No. of animals exhibiting motor impairment/no. of used animals” value in the data set with neurotoxicity (rotarod) (mouse, in vivo, 30 mg/kg) is listed as 3/4; with neurotoxicity (rotarod) (mouse, in vivo, 300 mg/kg), 4/4.
As to `CC[C@H](CO)NCCOc1cc(C)cc(C)c1C` [Compound 40, R-(−)-2N-[(2,3,5-trimethylphenoxy)ethyl]amino-1-butanol], the responders at 30 mg/kg in data set [1] (Mus musculus, dose 30 mg/kg b.w., time 0.5 h, read-out: MES, No. of protected animals/No. of used animals) stood at 100%. In addition, the responders at 100 mg/kg in data set [1] (Mus musculus, dose 100 mg/kg b.w., time 0.5 h) is 66.7%; in data set [1] (Mus musculus, dose 100 mg/kg b.w., time 4 h), 33.3%. The entries for the “TOX, No. of animals exhibiting motor impairment/no. of used animals” value in the data set on neurotoxicity (rotarod) (setting [5]) and with neurotoxicity (rotarod) (setting [7]) were 4/8 and 4/4, respectively.
Take `CCC(CO)NCCCOc1c(C)cccc1C.Cl` (racemic) [Compound 55, R,S-2N-[(2,6-dimethylphenoxy)propyl]amino-1-butanol hydrochloride]: the “MES, No. of protected animals/No. of used animals” value was 1/1 in data set [1] (dose 30 mg/kg b.w., 0.5 h) and 3/3 in data set [1] (dose 100 mg/kg b.w., 0.5 h). In addition, the “TOX, No. of animals exhibiting motor impairment/no. of used animals” value was 8/8 in the data set on neurotoxicity (rotarod) (mouse, in vivo, 100 mg/kg) and 4/4 in the data set with neurotoxicity (rotarod) (mouse, in vivo, 300 mg/kg).
`Cc1cccc(C)c1OCC(=O)N[C@@H](C)CO` [Compound 62, S-(−)-2N-[(2,6-dimethylphenoxy)acetyl]amino-1-propanol]: the “MES, No. of protected animals/No. of used animals” value is given as 1/1 in data set [1] (dose 300 mg/kg b.w., 0.5 h) and 1/1 in data set [1] (dose 300 mg/kg b.w., 4 h). In addition, the “TOX, No. of animals exhibiting motor impairment/no. of used animals” value with neurotoxicity (rotarod) (setting [8]) was 1/4; with neurotoxicity (rotarod) (setting [9]), 3/8; with neurotoxicity (rotarod) (mice, dose 100 mg/kg b.w., 4 h), 1/4; in the data set on neurotoxicity (rotarod) (setting [10]), 3/4; in the data set with neurotoxicity (rotarod) (mice, dose 300 mg/kg b.w., 4 h) it was 1/2.
`Cc1cc(C)c(C)c(OCCNC(C)CO)c1` (stereo not drawn) [Compound 38, R,S-2N-[(2,3,5-trimethylphenoxy)ethyl]amino-1-propanol]: the “MES, No. of protected animals/No. of used animals” value in data set [1] (dose 30 mg/kg b.w., time 0.5 h) is on record as 1/1; in data set [1] (setting [2]), 3/3; in data set [1] (dose 100 mg/kg b.w., time 4 h), 2/2. In the data set with neurotoxicity (rotarod) (mouse, in vivo, 300 mg/kg), the “TOX, No. of animals exhibiting motor impairment/no. of used animals” value is reported as 4/4.
Take `Cc1cccc(C)c1OCCCNC(C)CO` (racemic) [Compound 51, R,S-2N-[(2,6-dimethylphenoxy)propyl]amino-1-propanol]: the “MES, No. of protected animals/No. of used animals” value is listed as 1/1 in data set [1] (dose 30 mg/kg b.w., 0.5 h) and 3/3 in data set [1] (dose 100 mg/kg b.w., 0.5 h). Further, the “TOX, No. of animals exhibiting motor impairment/no. of used animals” value with neurotoxicity (rotarod) (mouse, in vivo, 30 mg/kg) is 2/4; in the data set on neurotoxicity (rotarod) (mouse, in vivo, 300 mg/kg), 4/4.
For `CC[C@H](CO)NCCOc1c(C)cccc1Cl.Cl` [Compound 27a, R-(−)-2N-[(2-chlor-6-methylphenoxy)ethyl]amino-1-butanol hydrochloride], the “MES, No. of protected animals/No. of used animals” value is given as 1/1 in data set [1] (dose 30 mg/kg b.w., time 0.5 h) and 2/3 in data set [1] (setting [2]). Moreover, the “TOX, No. of animals exhibiting motor impairment/no. of used animals” value in the data set with neurotoxicity (rotarod) (setting [5]) is 7/8; in the data set on neurotoxicity (rotarod) (setting [7]) it was 4/4.
As for `CCC(O)CNC(=O)COc1c(C)cccc1C` (stereo not drawn) [Compound 63, R,S-1N-[(2,6-dimethylphenoxy)acetyl]amino-2-butanol], in data set [1] (dose 300 mg/kg b.w., 0.5 h), the “MES, No. of protected animals/No. of used animals” value is reported as 1/1. In addition, the “TOX, No. of animals exhibiting motor impairment/no. of used animals” value with neurotoxicity (rotarod) (setting [10]) is recorded as 4/4.
With “R,S-2N-[(2,3-dimethylphenoxy)ethyl]amino-1-propanol [Compound 1]”, the “MES, No. of protected animals/No. of used animals” value in data set [1] (setting [2]) is 3/3. Besides, the “TOX, No. of animals exhibiting motor impairment/no. of used animals” value with neurotoxicity (rotarod) (mouse, in vivo, 100 mg/kg) is recorded as 7/8; with neurotoxicity (rotarod) (mouse, in vivo, 300 mg/kg), 4/4.
Take `Cc1cccc(C)c1OCCCNCC(O)c1ccccc1` (racemic) [Compound 56, R,S-2N-[(2,6-dimethylphenoxy)propyl]amino-1-phenylethanol]: in data set [1] (dose 100 mg/kg b.w., 0.5 h), the “MES, No. of protected animals/No. of used animals” value was 1/1. Moreover, the results for the “TOX, No. of animals exhibiting motor impairment/no. of used animals” value with neurotoxicity (rotarod) (setting [8]), in the data set with neurotoxicity (rotarod) (setting [9]) and with neurotoxicity (rotarod) (setting [10]) were 2/4, 8/8 and 4/4, respectively.
On to `Cc1cccc(C)c1OCCN(C)C(C)CO.Cl` (racemic) [Compound 14, R,S-2N-[(2,6-dimethylphenoxy)ethyl]-2N-methylamino-1-propanol hydrochloride], for which the “MES, No. of protected animals/No. of used animals” value in data set [1] (dose 30 mg/kg b.w., time 0.5 h) was 1/1; in data set [1] (setting [2]) it was 1/1. Also, the “TOX, No. of animals exhibiting motor impairment/no. of used animals” value is 1/4 in the data set with neurotoxicity (rotarod) (mouse, in vivo, 30 mg/kg); 8/8 with neurotoxicity (rotarod) (mouse, in vivo, 100 mg/kg); 4/4 in the data set with neurotoxicity (rotarod) (mouse, in vivo, 300 mg/kg).
On to `Cc1cccc(C)c1OCCNC[C@@H](O)c1ccccc1` [Compound 21, S-(+)-2N-[(2,6-dimethylphenoxy)ethyl]amino-1-phenylethanol], for which the “MES, No. of protected animals/No. of used animals” value in data set [1] (dose 30 mg/kg b.w., time 0.5 h) is 1/1; in data set [1] (setting [2]), 3/3. The “TOX, No. of animals exhibiting motor impairment/no. of used animals” value in the data set on neurotoxicity (rotarod) (setting [5]) is listed as 7/8; in the data set with neurotoxicity (rotarod) (setting [7]), 4/4.
With `Cc1cccc(Cl)c1OCCNC(C)CO` (stereo not drawn) [Compound 24, R,S-2N-[(2-chlor-6-methylphenoxy)ethyl]amino-1-propanol], in data set [1] (setting [2]), the “MES, No. of protected animals/No. of used animals” value is 3/3. Further, the “TOX, No. of animals exhibiting motor impairment/no. of used animals” value with neurotoxicity (rotarod) (setting [5]) is 5/8; in the data set on neurotoxicity (rotarod) (setting [7]) it was 4/4.
